Data from patent publication US6274606A, “Methods of treating central nervous system disorders with aryl substituted olefinic amine compounds” (Targacept, Inc., priority 1998, dated 2001).

Columns and labels:
Type in all cases: cell-based
CNS nicotinic receptors = test: Determination of Dopamine Release
Procedure: As such, these compounds have the ability to cause relevant neurons to release or secrete acetylcholine, dopamine, and other neurotransmitters. […] Certain compounds of the present invention can provide secretion of dopamine in an amount which can exceed that elicited by an equal molar amount of (S)-(-)-nicotine.
Determination of Dolpamine Release
Dopamine release was measured using the techniques described in U.S. Pat. No. 5,597,919 to Dull et al., the subject matter of which is already incorporated herein by reference in its entirety. […] Reported EC50 is expressed in nM and Emax represent the amount released relative to nicotine.

ganglionic receptors = target: T1, ganglionic receptors (Rattus norvegicus, UniProt P04757+P12392); test: cell-based; conditions: for Ganglion Effect (% nicotine): ganglionic cell preparations
T1 construct: endogenous in cells; host or cells: cell preparations derived from the adrenal gland

muscle receptors = target: T2, muscle receptors (Homo sapiens, UniProt P02708+P07510+Q07001); conditions: muscle cell preparations
T2 construct: endogenous in cells; host or cells: cell preparations derived from muscle
T2 sequence (P07510 23-517): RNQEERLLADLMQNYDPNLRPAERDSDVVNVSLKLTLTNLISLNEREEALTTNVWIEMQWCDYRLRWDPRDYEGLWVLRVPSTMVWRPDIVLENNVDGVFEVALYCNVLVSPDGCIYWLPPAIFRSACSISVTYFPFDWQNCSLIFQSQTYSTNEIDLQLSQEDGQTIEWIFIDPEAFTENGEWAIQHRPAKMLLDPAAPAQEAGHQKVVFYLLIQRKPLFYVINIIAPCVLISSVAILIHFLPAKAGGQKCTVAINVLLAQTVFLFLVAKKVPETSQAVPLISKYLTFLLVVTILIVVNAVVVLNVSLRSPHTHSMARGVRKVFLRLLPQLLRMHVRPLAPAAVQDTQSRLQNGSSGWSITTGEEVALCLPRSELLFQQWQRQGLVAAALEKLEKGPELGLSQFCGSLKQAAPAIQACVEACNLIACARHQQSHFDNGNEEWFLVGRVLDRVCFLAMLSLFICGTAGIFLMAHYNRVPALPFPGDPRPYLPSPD
T2 sequence (P11230 24-501, further chain): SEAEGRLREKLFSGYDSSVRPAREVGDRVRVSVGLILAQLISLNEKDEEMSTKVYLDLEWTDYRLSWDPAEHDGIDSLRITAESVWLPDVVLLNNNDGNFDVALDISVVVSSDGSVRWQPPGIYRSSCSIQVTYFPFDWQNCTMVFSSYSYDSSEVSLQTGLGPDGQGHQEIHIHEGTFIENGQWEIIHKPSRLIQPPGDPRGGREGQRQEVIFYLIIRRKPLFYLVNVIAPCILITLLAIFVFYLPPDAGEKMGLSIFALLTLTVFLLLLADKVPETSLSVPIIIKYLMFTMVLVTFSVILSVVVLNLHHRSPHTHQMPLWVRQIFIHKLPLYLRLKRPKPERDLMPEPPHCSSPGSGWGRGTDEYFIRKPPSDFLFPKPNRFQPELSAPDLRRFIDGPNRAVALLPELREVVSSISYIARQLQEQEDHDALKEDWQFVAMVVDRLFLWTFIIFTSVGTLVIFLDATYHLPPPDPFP
T2 sequence (Q07001 22-517): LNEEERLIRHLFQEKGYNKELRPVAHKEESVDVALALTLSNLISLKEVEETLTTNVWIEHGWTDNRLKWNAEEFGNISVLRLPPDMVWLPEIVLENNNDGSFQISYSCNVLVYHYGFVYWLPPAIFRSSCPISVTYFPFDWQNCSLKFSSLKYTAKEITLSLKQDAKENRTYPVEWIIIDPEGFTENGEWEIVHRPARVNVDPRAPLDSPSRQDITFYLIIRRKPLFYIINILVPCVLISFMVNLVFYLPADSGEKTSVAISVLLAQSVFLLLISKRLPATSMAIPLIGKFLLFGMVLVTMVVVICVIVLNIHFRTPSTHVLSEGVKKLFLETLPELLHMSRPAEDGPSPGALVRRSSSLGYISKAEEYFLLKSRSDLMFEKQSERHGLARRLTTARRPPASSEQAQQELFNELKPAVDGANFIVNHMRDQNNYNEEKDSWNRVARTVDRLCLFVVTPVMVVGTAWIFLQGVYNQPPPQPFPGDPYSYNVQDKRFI
T2 sequence (P02708 21-457): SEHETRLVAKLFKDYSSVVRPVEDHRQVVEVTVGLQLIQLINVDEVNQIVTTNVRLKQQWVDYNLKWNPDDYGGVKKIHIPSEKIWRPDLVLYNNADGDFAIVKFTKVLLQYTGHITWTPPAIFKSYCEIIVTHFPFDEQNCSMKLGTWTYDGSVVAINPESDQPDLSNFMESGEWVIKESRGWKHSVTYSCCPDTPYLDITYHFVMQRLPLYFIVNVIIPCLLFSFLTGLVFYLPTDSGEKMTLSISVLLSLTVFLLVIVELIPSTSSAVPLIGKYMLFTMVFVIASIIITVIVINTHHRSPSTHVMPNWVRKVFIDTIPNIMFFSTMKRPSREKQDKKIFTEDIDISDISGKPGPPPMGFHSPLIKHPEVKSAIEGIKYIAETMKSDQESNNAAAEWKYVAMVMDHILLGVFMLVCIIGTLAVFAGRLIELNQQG

T1 sequence (P04757 26-499): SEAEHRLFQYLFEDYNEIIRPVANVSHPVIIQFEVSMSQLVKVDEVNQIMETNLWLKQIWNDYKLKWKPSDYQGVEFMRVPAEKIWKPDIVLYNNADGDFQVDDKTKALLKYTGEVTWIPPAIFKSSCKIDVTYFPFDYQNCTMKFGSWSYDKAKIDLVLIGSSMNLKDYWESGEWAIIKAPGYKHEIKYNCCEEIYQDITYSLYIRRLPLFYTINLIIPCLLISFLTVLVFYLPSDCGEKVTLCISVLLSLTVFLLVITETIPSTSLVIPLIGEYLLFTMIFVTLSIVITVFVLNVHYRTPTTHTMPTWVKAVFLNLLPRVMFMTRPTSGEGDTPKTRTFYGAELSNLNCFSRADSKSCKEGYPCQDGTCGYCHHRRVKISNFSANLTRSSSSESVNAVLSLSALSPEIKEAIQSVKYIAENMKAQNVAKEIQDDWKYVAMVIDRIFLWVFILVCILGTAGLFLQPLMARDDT
T1 sequence (P12392 21-495): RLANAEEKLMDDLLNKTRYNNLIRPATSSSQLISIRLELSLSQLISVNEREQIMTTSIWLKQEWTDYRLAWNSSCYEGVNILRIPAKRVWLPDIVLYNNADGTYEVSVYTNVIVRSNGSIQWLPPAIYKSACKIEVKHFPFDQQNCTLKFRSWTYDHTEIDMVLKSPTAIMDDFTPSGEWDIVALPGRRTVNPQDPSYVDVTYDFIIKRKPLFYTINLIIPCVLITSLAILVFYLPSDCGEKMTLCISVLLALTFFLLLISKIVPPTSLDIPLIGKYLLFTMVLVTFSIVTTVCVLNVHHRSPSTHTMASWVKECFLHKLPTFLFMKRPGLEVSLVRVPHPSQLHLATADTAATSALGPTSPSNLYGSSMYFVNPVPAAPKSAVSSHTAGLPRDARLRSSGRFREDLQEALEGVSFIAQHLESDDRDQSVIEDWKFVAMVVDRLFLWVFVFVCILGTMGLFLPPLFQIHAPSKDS

**Q.** For `NCC/C=C/c1cncc(Br)c1` [Sample No. 2, (E)-4-[3-(5-Bromopyridin)yl]-3-buten-1-amine Hemifumarate], which EC50 (CNS nicotinic receptors) is on record?
**A.** 2400 nM

**Q.** And the “Dopamine Release Emax” value (CNS nicotinic receptors; percentage of release obtained with a concentration of (S)-(-)-nicotine resulting in maximal effects)?
**A.** 107%

**Q.** And the “Ganglion Effect (% nicotine)” value (ganglionic receptors)?
**A.** 11

**Q.** And the “Muscle Effect (% nicotine)” value (muscle receptors)?
**A.** 8

**Q.** With `CNCC/C=C/c1cncc(Oc2ccccc2)c1` [Sample No. 3, (E)-N-Methyl-4-[3-(5-phenoxypyridin)yl]-3-buten-1-amine] as the compound, how does the “Ganglion Effect (% nicotine)” value (ganglionic receptors) read?
**A.** < 15

**Q.** With `NCC/C=C/c1cccnc1.O=C(O)/C=C/C(=O)O.O=C(O)/C=C/C(=O)O` [Sample No. 6, (E)-4-(3-pyridinyl)-3-buten-1-amine difumarate] as the compound, how does the “Ganglion Effect (% nicotine)” value (ganglionic receptors) read?
**A.** 23

**Q.** With `CCOc1cncc(/C=C/CCNC)c1` [Sample No. 7, (E)-N-Methyl-4-[3-(5-ethoxypyridin)yl]-3-buten-1-amine Sesquifumarate] as the compound, how does the Emax (ganglionic receptors; read-out: Ganglion Effect (% nicotine)) read?
**A.** < 15%

**Q.** `CNCC/C=C/c1cncc(N)c1` [Sample No. 9, (E)-N-methyl-4-[3-(5-aminopyridin)yl]-3-buten-1-amine] was tested. Which “Ganglion Effect (% nicotine)” value (ganglionic receptors) did it give?
**A.** 4

**Q.** For `CNCC/C=C/c1cncc(COC)c1` [Sample No. 5, (E)-N-Methyl-4-[3-(5-methoxymethylpyridin)yl]-3-buten-1-amine], which “Ganglion Effect (% nicotine)” value (ganglionic receptors) is on record?
**A.** 0

**Q.** Which “Ganglion Effect (% nicotine)” value (ganglionic receptors) does the source give for `CNCC/C=C/c1cncc(OC(C)C)c1` [Sample No. 4, (E)-N-Methyl-4-[3-(5-isopropoxypyridin)yl]-3-buten-1-amine] here?
**A.** < 15

**Q.** How did the “Ganglion Effect (% nicotine)” value (ganglionic receptors) turn out when `CNCC/C=C/c1cncc(OCc2ccccc2)c1` [Sample No. 1, (E)-N-Methyl-4-[3-(5-benzyloxypyridin)yl]-3-buten-1-amine] was run?
**A.** 0

**Q.** With `CNCC/C=C/c1cncc(-c2ccccc2)c1` [Sample No. 8, (E)-N-Methyl-4-[3-(5-phenylpyridin)yl]-3-buten-1-amine] as the compound, how does the “Ganglion Effect (% nicotine)” value (ganglionic receptors) read?
**A.** 0
